Usually Ki stands for a dissociation constant, usually derived from enzyme kinetics or from competition with a known ligand. One may read the IC50 as the point on the concentration scale where inhibition reaches its midpoint. Higher therefore signals a need for much substance.

For one assay, the target named is Carbonic anhydrase 9 (Homo sapiens, UniProt Q16790). The assay is described as follows: Inhibition of recombinant human carbonic anhydrase 9 assessed as inhibition of CO2 hydration preincubated for 15 mins prior to testing by phenol red based stopped-flow assay.
The next assay relates to MDA-MB-231. The assay is described as follows: Cytotoxicity against human MDA-MB-231 cells under hypoxic condition by MTT assay.
In another assay the test system is MCF7. The assay is described as follows: Cytotoxicity against human MCF7 cells under hypoxic condition by MTT assay. (In general: Tetrazolium dyes change colour on reduction, which living cells bring about.)

With `Cc1ccc(S(=O)(=O)C/C(=N\Nc2ccc(S(N)(=O)=O)cc2)c2ccccc2)cc1`, on Carbonic anhydrase 9, the inhibition constant Ki is 0.0395 µM.
The same measure, in the same setting: as for `Cc1ccc(S(=O)(=O)C/C(=N\Nc2ccc(S(N)(=O)=O)cc2)c2ccsc2)cc1`, the figure is 0.0563 µM; as for `NS(=O)(=O)c1ccc(N/N=C(\CS(=O)(=O)c2ccccc2)c2ccc(Cl)cc2)cc1`, 0.0348 µM; as for `Cc1ccc(S(=O)(=O)C/C(=N\Nc2ccc(S(N)(=O)=O)cc2)c2ccc(Br)cc2)cc1`, 0.0561 µM.
For the molecule `Cc1ccc(S(=O)(=O)C/C(=N\Nc2ccc(S(N)(=O)=O)cc2)c2ccc([N+](=O)[O-])cc2)cc1`, the Ki at Carbonic anhydrase 9 was determined as 0.0792 µM.
For `NS(=O)(=O)c1ccc(N/N=C(\CS(=O)(=O)c2ccccc2)c2cc3ccccc3o2)cc1`, at Carbonic anhydrase 9, the Ki stood at 0.0691 µM.
Turning to `NS(=O)(=O)c1ccc(N/N=C(\CS(=O)(=O)c2ccccc2)c2ccc3ccccc3c2)cc1`, the Ki on Carbonic anhydrase 9 was determined as 0.0393 µM.
Turning to `Cc1ccc(S(=O)(=O)C/C(=N\Nc2ccc(S(N)(=O)=O)cc2)c2ccc(F)cc2)cc1`, the Ki on Carbonic anhydrase 9 was 0.0276 µM.
Take `Cc1ccc(S(=O)(=O)C/C(=N\Nc2ccc(S(N)(=O)=O)cc2)c2ccc3ccccc3c2)cc1`: the Ki at Carbonic anhydrase 9 worked out at 0.0153 µM.
In the case of `Cc1ccc(/C(CS(=O)(=O)c2ccccc2)=N/Nc2ccc(S(N)(=O)=O)cc2)cc1`, on Carbonic anhydrase 9, the Ki is 0.0365 µM.
Turning to `NS(=O)(=O)c1ccc(N/N=C(\CS(=O)(=O)c2ccccc2)c2ccc(F)cc2)cc1`, the Ki at Carbonic anhydrase 9 was 0.0075 µM.
Turning to `Cc1ccc(/C(CS(=O)(=O)c2ccc(C)cc2)=N/Nc2ccc(S(N)(=O)=O)cc2)cc1`, on Carbonic anhydrase 9, the Ki was 0.0053 µM. In addition, the IC50 with MDA-MB-231 is 5.14 µM; in the assay on MCF7, 2.33 µM.
Regarding `NS(=O)(=O)c1ccc(N/N=C(\CS(=O)(=O)c2ccccc2)c2ccc(-c3ccccc3)cc2)cc1`, the Ki on Carbonic anhydrase 9 is 0.132 µM.
The same measure, in the same setting: the figure for `NS(=O)(=O)c1ccc(N/N=C(\CS(=O)(=O)c2ccccc2)c2ccc(Br)cc2)cc1` is 0.0612 µM.
Take `Cc1ccc(S(=O)(=O)C/C(=N\Nc2ccc(S(N)(=O)=O)cc2)c2ccc(Cl)cc2)cc1`: on Carbonic anhydrase 9, the Ki was 0.0087 µM. Moreover, the IC50 in the assay on MDA-MB-231 came to 18.2 µM; in the assay with MCF7 it was 3.9 µM.
On to `NS(=O)(=O)c1ccc(N/N=C(\CS(=O)(=O)c2ccccc2)c2ccco2)cc1`, for which, at Carbonic anhydrase 9, the Ki turned out to be 0.0793 µM.
In the case of `NS(=O)(=O)c1ccc(N/N=C(\CS(=O)(=O)c2ccccc2)c2ccc([N+](=O)[O-])cc2)cc1`, the Ki on Carbonic anhydrase 9 is 0.0716 µM.
`COc1cccc2c1C(=O)c1c(O)c3c(c(O)c1C2=O)C[C@@](O)(C(=O)CO)C[C@@H]3O[C@H]1C[C@H](N)[C@H](O)[C@H](C)O1` [DOXORUBICIN] gave an IC50 with MCF7 of 0.37 µM.

The values above are taken from ChEMBL document CHEMBL4152225, “Dual-tail arylsulfone-based benzenesulfonamides differently match the hydrophobic and hydrophilic halves of human carbonic anhydrases active sites: Selective inhibitors for the tumor-associated hCA IX isoform” (Eur J Med Chem, 2018).
